Entries after “also recorded” stand apart in the source; their conditions may differ.
Columns and labels:
Assay type in all cases: in vivo
C57BL/6J mice = assay: Contextual fear conditioning (associative learning) in wild type mice; settings: for freezing behavior during the memory test: test 24 h later
Text: (§1) Learning tests: All behavioral testing is described in Fischer et al. (3).
Mechanism underlying EE. Other than a few genes involved in synaptic function, relatively little is known about the mechanism underlying EE (12-14). Since histone acetylation, an epigenetic mechanism regulating gene expression via chromatin remodeling, has recently been implicated in synaptic plasticity and learning behavior (15-18), the induction of a transcriptional program by EE that leads to activation of plasticity genes was evaluated. Wild type mice were subjected to EE and hippocampal and cortical brain lysates were obtained 3, 24 h or 2 weeks later (n=3/group) by acid extraction and probed with antibodies detecting histone-tail modification that indicate active chromatin. Increases in hippocampal H3 (K-9, K14) and H4 (K-5) and in cortical H3 (K-9) and H4 (K-5) acetylation were observed. […] No changes in H4 acetylation were observed when the Ac-H4 (K,8,12,16) antibody was used, which is likely due to the fact that H4-K16 is a marker of condensed chromatin. EE induced hippocampal and cortical histone 3 (H3) and histone 4 (H4) acetylation and […] as soon as 3 hours after treatment (FIGS. 3a, b). […] To investigate whether inhibition of HDACs mimics the effects of EE, SB was administered daily [ip] into wild type mice for 4 weeks (FIG. 3c). […] Two days after the last injection mice were trained in the fear conditioning paradigm. […] Locomotor activity or basal anxiety was not altered in SB-injected mice (FIG. 8c).
The effect of sodiumbutyrate injection on learning, basal anxiety, explorative behavior and brain plasticity. C57BL/6J mice were subjected to fear conditioning and injected intraperitoneally [ip] with 1.2 g/kg sodiumbutyrate (SB, n=8) or saline (vehicle; n=8) immediately afterwards. […] C57BL/6J mice were implanted with microcannulae into the lateral brain ventricles (icv) and injected with either 100 ng SB, 50 ng TSA or vehicle immediately after fear conditioning (n=8/group). […] C57BL/6J were daily injected [ip] with SB or saline (n=8/group) for 4 weeks before all mice were subjected to the elevated plus maze and open field test. […] Immunoblots were quantified relative to the optical density of the vehicle-group (set to 1). […] The analysis was performed as described under FIG. 1g.
The effects of SAHA and MS-275, relative to sodium butyrate (SB), on the hippocampus dependent associative learning in wildtype mice.
Mice were injected 10 days with either 5 mg/kg of MS275 or 25 mg/kg of UW_WT-I—06 or UW_WT-I—05 before training and memory tests as described above. […] Andorfer, C. et al. Cell-cycle reentry and cell death in transgenic mice expressing nonmutant human tau isoforms. J neurosci 25, 5446-5454 (2005). • 2. Santacruz, K. et al. Tau suppression in a neurodegenerative mouse model improves memory function. Science 309, 476-481 (2005). • 3. Fischer, A., Sananbenesi, F., Pang, P. T., Lu, B. & Tsai, L. H. Opposing roles of transient and prolonged expression of p25 in synaptic plasticity and hippocampus-dependent memory. Neuron 48, 825-838 (2005). • 4. Cruz, J. C. & Tsai, L. H. Jekyll and Hyde kinase: roles for Cdk5 in brain development and disease. Curr Opin Neurobiol. 14, 390-394 (2004). • 5. Cruz, J. C., Tseng, H. C., Goldman, J. A., Shih, H. & Tsai, L. H. Aberrant Cdk5 activation by p25 triggers pathological events leading to neurodegeneration and neurofibrillary tangles. Neuron 40, 471-83 (2003). • 6. Nithianantharajah, J. & Hannan, A. J. Enriched environments, experience-dependent plasticity and disorders of the nervous system. Nat Rev Neurosci 7, 697-709 (2006). • 7. Kim, J. J. & Fanselow, M. S. Modality-specific retrograde amnesia of fear. Science 256, 675-7 (1992). • 8. Gilmore, E. C. & Herrup, K. Neocortical cell migration: GABAergic neurons and cells in layers I and VI move in a cyclin-dependent kinase 5-independent manner. J Neurosci 21, 9690-700 (2001). • 9. […]

[1] = test system: MAP-2, synaptophysin (SVP), synaptic and dendritic marker proteins; assay: Synaptic and dendritic markers in hippocampus of wild type mice (immunostaining, immunoblot); settings: wild type mice injected for 4 weeks
Protocol: Immunoblotting and staining: Lysates for immunoblotting were prepared as described by Fischer et al. (3). To isolate histones, brain tissue was homogenized in TX-buffer (50 mM Tris HCL, 150 mM NACL, 2 mM EDTA, 1% Triton-100) and incubated at 4° C. for 15 min prior to centrifugation at 200 rpm for 10 min. After a wash-step in TX-buffer the pellet was dissolved in TX-buffer containing 0.2M HCl and incubated on ice for 30 min, before a second centrifugation at 10000 rpm for 10 min. The supernatant was either dialysed or directly used for immunoblotting. Antibodies were used in 1:1000 concentrations. All antibodies detecting histones and anti-PSD-95 were form Upstate (Lake Placid, N.Y.). Anti-synaptophysin (SVP38) was from Sigma. Anti-neuronal nuclei (neuN) and anti-growth associated protein (Gap43) were from Chemicon (Temecula, Calif.) and anti-N-cadherin, anti-β-catenin were from Santa Cruz (Santa Cruz, Calif.). Immunostaining was performed as described by Fischer et al. (3). Antibodies mentioned above were used in a 1:500 dilution. Anti-MAP-2 antibody (Sigma) was used in a 1:200 dilution.
LSMeta10 software (Zeiss; Jena, Germany) was used to calculate the mean SVP intensity. Brain sections with the strongest intensity were scanned first. All other images included in the analysis where scanned using the same microscope setting. […] Scale bar: 20 μm. py, pyramidal cell layer (FIG. 1g).
The effect of sodiumbutyrate injection on learning, basal anxiety, explorative behavior and brain plasticity. C57BL/6J mice were subjected to fear conditioning and injected intraperitoneally [ip] with 1.2 g/kg sodiumbutyrate (SB, n=8) or saline (vehicle; n=8) immediately afterwards. […] C57BL/6J mice were implanted with microcannulae into the lateral brain ventricles (icv) and injected with either 100 ng SB, 50 ng TSA or vehicle immediately after fear conditioning (n=8/group). […] Immunoblots were quantified relative to the optical density of the vehicle-group (set to 1). […]

CK-p25 Tg mice = assay: Fear conditioning learning in CK-p25 Tg mice after neurodegeneration; settings: 6 weeks p25 induction, then daily 1.2 g/kg for 4 weeks, vs saline, P=0.009
Text: as §1
Reinstatement of learning behavior through inhibition of HDAC. Whether sustained inhibition of HDACs would reinstate learning behavior and recover access to long-term memories in CK-p25 Tg mice that had developed synaptic and neuronal loss was investigated. P25 was induced in 11 month old CK-p25 Tg mice for 6 weeks. Afterwards p25 expression was repressed and one group of CK-p25 Tg mice was subjected to daily sodiumbutyrate (SB) injection (1.2 g/kg) for 4 weeks (n=9), whereas the other group received saline injection (n=9). […] To this end p25 expression was induced in 11-month old CK-p25 mice for 6 weeks, before one group was injected daily for 4 weeks with SB whereas the control group received saline injection (FIG. 4a).

For `CCCC(=O)[O-].[Na+]` [SB, sodiumbutyrate], the “freezing during the memory test” value (C57BL/6J mice; daily ip 1.2 g/kg for 4 weeks, trained two days after last injection, tested 24 h later, P<0.0001) was “more freezing during the memory test”, the “freezing behavior during the memory test” value (C57BL/6J mice; icv 100 ng SB or 50 ng TSA immediately after fear conditioning, P<0.0001) was “more freezing behavior than vehicle injected mice” and the “freezing behavior during the memory test” value (C57BL/6J mice; single ip 1.2 g/kg immediately after fear conditioning, P<0.0001) was “significantly more freezing behavior”. For the same compound, the associative learning (C57BL/6J mice; wild type mice, intraperitoneal [ip] and intracerebroventricular [icv] injections) was “significantly facilitated associative learning”, the “associative learning, contextual fear conditioning paradigm” value (C57BL/6J mice; wildtype mice, chronic treatment for 10-21 days) was “facilitates contextual fear conditioning learning” and the “levels of synaptic and dendritic marker proteins (markers for brain plasticity), hippocampal lysates” value ([1]; immunoblots relative to vehicle) was “elevated levels; also recorded: Several markers for brain plasticity were increased”. The “hippocampal MAP-2 immunoreactivity (IR)” value ([1]; vs vehicle) was “increased MAP-2 immunoreactivity (IR)”, the “hippocampal synaptophysin (SVP) IR” value ([1]; vs vehicle) was “increased SVP IR” and the “associative learning (freezing behavior)” value (CK-p25 Tg mice) was “significantly enhanced”.
